Experimental data taken from US12145927B2 (BRISTOL-MYERS SQUIBB COMPANY, priority 2018, dated 2024).

Tests used:
[1] = target: T1, indoleamine 2,3-dioxygenase (IDO) (Homo sapiens, UniProt P14902); experiment: HeLa cell-based indoleamine 2,3-dioxygenase (IDO) assay (IDO1 HeLa); settings: HeLa cells, IFNγ 25 ng/mL, 48 hour incubation; kynurenine by absorbance at 480 nm
T1 construct: replaced with media containing IFNγ (#285-IF/CF, R&D Systems) at a final concentration of 25 ng/mL; endogenous in cells; host or cells: HeLa (ATCC CCL-2), IFNγ-stimulated
T1 sequence (P14902 whole entry): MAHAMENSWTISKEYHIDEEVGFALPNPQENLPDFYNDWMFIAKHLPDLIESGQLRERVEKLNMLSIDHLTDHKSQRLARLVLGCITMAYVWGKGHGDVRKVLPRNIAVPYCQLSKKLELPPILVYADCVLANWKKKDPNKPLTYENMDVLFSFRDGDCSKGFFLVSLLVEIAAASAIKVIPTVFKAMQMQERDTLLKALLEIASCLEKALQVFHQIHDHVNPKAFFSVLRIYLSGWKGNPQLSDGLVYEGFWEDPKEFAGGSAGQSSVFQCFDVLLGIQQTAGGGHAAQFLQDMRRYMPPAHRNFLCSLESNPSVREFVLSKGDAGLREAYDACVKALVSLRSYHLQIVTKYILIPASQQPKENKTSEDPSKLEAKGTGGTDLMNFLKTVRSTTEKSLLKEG
Procedure: Assessment of inhibitor activity in HeLa cell-based indoleamine 2,3-dioxygenase (IDO) assay:
HeLa (ATCC® CCL-2) cells were obtained from the ATCC® and cultured in Dulbecco's Modified Eagle Medium supplemented with 4.5 g/L glucose, […] (#10-013-CV, Corning), 2 mM L-alanyl-L-glutamine dipeptide (#35050-061, Gibco), 100U/mL penicillin, 100 μg/mL streptomycin (#SV30010, HyClone) and 10% fetal bovine serum (#SH30071.03 HyClone). Cells were maintained in a humidified incubator at 37° C. in 5% CO2.
IDO activity was assessed as a function of kynurenine production as follows: HeLa cells were seeded in a 96-well culture plate at a density of 5,000 cells/well and allowed to equilibrate overnight. After 24 hours, the media was aspirated and replaced with media containing IFNγ (#285-IF/CF, R&D Systems) at a final concentration of 25 ng/mL. A serial dilution of each test compound was added to the cells in a total volume of 200 μL of culture medium. After a further 48 hour incubation, 170 μL of supernatant was transferred from each well to a fresh 96-well plate. 12.1 μL of 6.1N trichloroacetic acid (#T0699, Sigma-Aldrich) was added to each well and mixed, followed by incubation at 65° C. for 20 minutes to hydrolyze N-formylkynurenine, the product of indoleamine 2,3-dioxygenase, to kynurenine. The reaction mixture was then centrifuged for 10 mins at 500×g to sediment the precipitate. 100 μL of the supernatant was transferred from each well to a fresh 96-well plate. 100 μl of 2% (w/v) p-dimethylaminobenzaldehyde (#15647-7, Sigma-Aldrich) in acetic acid (#A6283, Sigma-Aldrich) was added to each well mixed and incubated at RT for 20 mins. Kynurenine concentrations were determined by measuring absorbance at 480 nm and calibrating against an L-kynurenine (#K8625, Sigma-Aldrich) standard curve using a SPECTRAMAX® M2e microplate reader (Molecular Devices). The percentage activity at each inhibitor concentration was determined and IC50 values assessed using nonlinear regression.

human IDO1 = target: T2, human IDO1 (Homo sapiens, UniProt P14902); experiment: IDO inhibition assay in human IDO1/HEK293 cells (IDO1 HEK Human); format: cell-based; settings: HEK293 cells stably expressing human IDO1; 20 hours incubation; absorbance at 490 nm after Ehrlich reagent
T2 construct: expressed in transfected cells
T2 sequence (P14902 whole entry): as above
Method in brief: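 HEK293 clones stably expressing human IDO1 (10,000 cells/well, phenol red-free RPMI, 10% FBS) were treated with compound for 20 hours at 37° C. After 0.2% TCA and 30 min at 50° C., kynurenine was read with Ehrlich reagent at 490 nm. IC50 was normalised to DMSO (0%) and 500 nM reference standard (100%).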

Cc1ccc(NC(=O)Nc2cc(-c3ccccc3-c3nn[nH]n3)cc3c2OCC=CC3c2ccccc2)cc1 (racemic) [Example 87, (+/−)-1-(7-(2-(1H-tetrazol-5-yl)phenyl)-5-phenyl-2,5-dihydrobenzo[b]oxepin-9-yl)-3-(p-tolyl)urea]
IC50 [1]: 10.9 nM

CC1=CC(c2ccccc2)c2cc(-c3ccccc3-c3nnn[nH]3)cc(NC(=O)Nc3ccc(C)cc3)c2OC1 (racemic) [Example 92, (+/−)-1-(7-(2-(1H-tetrazol-5-yl)phenyl)-3-methyl-5-phenyl-2,5-dihydrobenzo[b]oxepin-9-yl)-3-(p-tolyl)urea]
IC50 [1]: 7.2 nM

O=C(Nc1ccc(Cl)cc1F)Nc1cc(-c2ccccc2-c2nnn[nH]2)cc2c1OCC=CC2c1ccccc1 (racemic) [Example 105, (+/−)-1-(7-(2-(1H-tetrazol-5-yl)phenyl)-5-phenyl-2,5-dihydrobenzo[b]oxepin-9-yl)-3-(4-chloro-2-fluorophenyl)urea]
IC50 [1]: 54.7 nM

O=C(Nc1ccc(Br)cc1)Nc1cc(-c2ccccc2-c2nnn[nH]2)cc2c1OCC=CC2c1ccccc1 (racemic) [Example 106, (+/−)-1-(7-(2-(1H-tetrazol-5-yl)phenyl)-5-phenyl-2,5-dihydrobenzo[b]oxepin-9-yl)-3-(4-bromophenyl)urea]
IC50 [1]: 30.1 nM

CCc1ccc(NC(=O)Nc2cc(-c3ccccc3-c3nnn[nH]3)cc3c2OCC=CC3CCC(F)(F)F)cc1 (racemic) [Example 107, (+/−)-1-(7-(2-(1H-tetrazol-5-yl)phenyl)-5-(3,3,3-trifluoropropyl)-2,5-dihydrobenzo[b]oxepin-9-yl)-3-(4-ethylphenyl)urea]
IC50 [1]: 14.5 nM

Cc1ccc(NC(=O)Nc2cc(-c3cc(F)ccc3C(=O)O)cc3c2OCCCC3c2ccccc2)cc1 (racemic) [Example 108, (+/−)-4-fluoro-2-(5-phenyl-9-(3-(p-tolyl)ureido)-2,3,4,5-tetrahydrobenzo[b]oxepin-7-yl)benzoic acid]
IC50 [1]: 164 nM

Cc1ccc(NC(=O)Nc2cc(-c3ccccc3-c3nnn[nH]3)cc3c2OC[C@@H](C)C[C@H]3c2ccccc2)cc1 (racemic) [Example 109, (+/−)-1-((cis)-7-(2-(1H-tetrazol-5-yl)phenyl)-3-methyl-5-phenyl-2,3,4,5-tetrahydrobenzo[b]oxepin-9-yl)-3-(p-tolyl)urea]
IC50 [1]: 5.9 nM

Cc1ccc(NC(=O)Nc2cc(-c3ccccc3-c3nnn[nH]3)cc3c2OCC(F)(F)CC3c2ccccc2)cc1 (racemic) [Example 110, (+/−) 1-(7-(2-(1H-tetrazol-5-yl)phenyl)-3,3-difluoro-5-phenyl-2,3,4,5-tetrahydrobenzo[b]oxepin-9-yl)-3-(p-tolyl)urea]
IC50 (human IDO1): 50.2 nM
IC50 [1]: 24.7 nM

Cc1ccc(NC(=O)Nc2cc(-c3ccccc3-c3nnn[nH]3)cc3c2OCCCC3C(C)C)cc1 (single isomer, unassigned) [24 (En. 1), 1-(7-(2-(1H-tetrazol-5-yl)phenyl)-5-isopropyl-2,3,4,5-tetrahydrobenzo[b]oxepin-9-yl)-3-(p-tolyl)urea]
IC50 (human IDO1): 0.98 nM
IC50 [1]: 28.9 nM

Cc1ccc(NC(=O)Nc2cc(-c3ccccc3-c3nnn[nH]3)cc3c2OCCCC3C(C)C)cc1 (single isomer, unassigned) [24 (En. 2), 1-(7-(2-(1H-tetrazol-5-yl)phenyl)-5-isopropyl-2,3,4,5-tetrahydrobenzo[b]oxepin-9-yl)-3-(p-tolyl)urea]
IC50 (human IDO1): 6.3 nM
IC50 [1]: 161 nM

Cc1ccc(NC(=O)Nc2cc(-c3ccccc3-c3nnn[nH]3)cc3c2OCCCC3C2CC2)cc1 (single isomer, unassigned) [36 (En. 1), 1-(7-(2-(1H-tetrazol-5-yl)phenyl)-5-cyclopropyl-2,3,4,5-tetrahydrobenzo[b]oxepin-9-yl)-3-(p-tolyl)urea]
IC50 (human IDO1): 10.4 nM
IC50 [1]: 14.9 nM

Cc1ccc(NC(=O)Nc2cc(-c3ccccc3-c3nnn[nH]3)cc3c2OCCCC3C2CC2)cc1 (single isomer, unassigned) [36 (En. 2), 1-(7-(2-(1H-tetrazol-5-yl)phenyl)-5-cyclopropyl-2,3,4,5-tetrahydrobenzo[b]oxepin-9-yl)-3-(p-tolyl)urea]
IC50 (human IDO1): 2.4 nM
IC50 [1]: 3.6 nM

COCC(CC(=O)O)c1cc(Nc2ccc(C#N)cc2)c2c(c1)C(C1CC1)CCCO2 (single isomer, unassigned) [131 (dia. 2), 3-(9-(4-Cyanophenylamino)-5-cyclopropyl-2,3,4,5-tetrahydrobenzo[b]oxepin-7-yl)-4-methoxybutanoic acid]
IC50 (human IDO1): 2 nM
IC50 [1]: 2.1 nM

Cc1ccc(NC(=O)Nc2cc(-c3ccccc3-c3noc(=O)[nH]3)cc3c2OCCCC3c2ccccc2)cc1 (single isomer, unassigned) [Example 67, 1-(7-(2-(5-oxo-4,5-dihydro-1,2,4-oxadiazol-3-yl)phenyl)-5-phenyl-2,3,4,5-tetrahydrobenzo[b]oxepin-9-yl)-3-(p-tolyl)urea]
IC50 (human IDO1): 1.1 nM
IC50 [1]: 1 nM

Fc1cc(Nc2cc(-c3ccccc3-c3nnn[nH]3)cc3c2OCCCC3c2ccccc2)ccc1Cl (single isomer, unassigned) [Example 72, 7-(2-(1H-tetrazol-5-yl)phenyl)-N-(4-chloro-3-fluorophenyl)-5-phenyl-2,3,4,5-tetrahydrobenzo[b]oxepin-9-amine]
IC50 [1]: 24.2 nM

Cc1ccc(-c2nnn[nH]2)c(-c2cc(Nc3ccc4nc(C)sc4c3)c3c(c2)C(c2ccccc2)CCCO3)c1 (single isomer, unassigned) [Example 74, 2-methyl-N-(7-(5-methyl-2-(1H-tetrazol-5-yl)phenyl)-5-phenyl-2,3,4,5-tetrahydrobenzo[b]oxepin-9-yl)benzo[d]thiazol-6-amine]
IC50 (human IDO1): 7.7 nM
IC50 [1]: 5.1 nM

Cc1ccc(NC(=O)Nc2cc(-c3ccccc3-c3nn[nH]n3)cc3c2OCCCC3c2ccccc2)cc1 (centres unmarked) [Example 1, 1-(7-(2-(1H-tetrazol-5-yl)phenyl)-5-phenyl-2,3,4,5-tetrahydrobenzo[b]oxepin-9-yl)-3-(p-tolyl)urea]
IC50 (human IDO1): 18.7 nM
IC50 [1]: 13.9 nM

O=C(Nc1ccccc1F)Nc1cc(-c2ccccc2-c2noc(=O)[nH]2)cc2c1OCCCC2C1CC1 (centres unmarked) [Example 35, 1-(5-cyclopropyl-7-(2-(5-oxo-4,5-dihydro-1,2,4-oxadiazol-3-yl)phenyl)-2,3,4,5-tetrahydrobenzo[b]oxepin-9-yl)-3-(2-fluorophenyl)urea]
IC50 (human IDO1): 19.7 nM

FC(F)(F)c1cnc(Nc2cc(-c3ccccc3-c3nnn[nH]3)cc3c2OCCCC3c2ccccc2)nc1 (centres unmarked) [Example 54, N-(7-(2-(1H-tetrazol-5-yl)phenyl)-5-phenyl-2,3,4,5-tetrahydrobenzo[b]oxepin-9-yl)-5-(trifluoromethyl)pyrimidin-2-amine]
IC50 (human IDO1): 432 nM

COC(=O)c1c(OC)cccc1-c1cc(NC(=O)Nc2ccc(C)cc2)c2c(c1)C(c1ccccc1)CCCO2 (centres unmarked) [Example 65, methyl 2-methoxy-6-(5-phenyl-9-(3-(p-tolyl)ureido)-2,3,4,5-tetrahydrobenzo[b]oxepin-7-yl)benzoate]
IC50 (human IDO1): 381 nM

COC(=O)c1c(C)cccc1-c1cc(NC(=O)Nc2ccc(C)cc2)c2c(c1)C(c1ccccc1)CCCO2 (centres unmarked) [Example 66, methyl 2-methyl-6-(5-phenyl-9-(3-(p-tolyl)ureido)-2,3,4,5-tetrahydrobenzo[b]oxepin-7-yl)benzoate]
IC50 (human IDO1): 327 nM

O=C(Nc1ccccc1F)Nc1cc(-c2ccccc2-c2nnn[nH]2)cc2c1OCCCC2c1ccc(F)cc1 (centres unmarked) [Example 70, 1-(7-(2-(1H-tetrazol-5-yl)phenyl)-5-(4-fluorophenyl)-2,3,4,5-tetrahydrobenzo[b]oxepin-9-yl)-3-(2-fluorophenyl)urea]
IC50 (human IDO1): 28.2 nM

Cc1ccc(NC(=O)Nc2cc(-c3ccccc3-c3nnn[nH]3)cc3c2OC(C)(C)C3)cc1 [Example 120, 1-(5-(2-(1H-Tetrazol-5-yl)phenyl)-2,2-dimethyl-2,3-dihydrobenzofuran-7-yl)-3-(p-tolyl)urea]
IC50 (human IDO1): 460 nM
